Assay results published in article PMC10905675, “INX-315, a Selective CDK2 Inhibitor, Induces Cell Cycle Arrest and Senescence in Solid Tumors” (Cancer Discovery, 2023).

Columns and labels:
Assay in all cases: SelectScreen ZLYTE
Format in all cases: biochemical
Conditions in all cases: INX-0315 at 100nM
ABL1 F317L = molecular target: T1, ABL1 F317L (Homo sapiens, UniProt P00519, F317L)
T1 construct: purchased Thermo Fisher Scientific SelectScreen (plus Nanosyn / Reaction Biology for CDK/cyclin lines)
T1 sequence (P00519 whole entry F317L): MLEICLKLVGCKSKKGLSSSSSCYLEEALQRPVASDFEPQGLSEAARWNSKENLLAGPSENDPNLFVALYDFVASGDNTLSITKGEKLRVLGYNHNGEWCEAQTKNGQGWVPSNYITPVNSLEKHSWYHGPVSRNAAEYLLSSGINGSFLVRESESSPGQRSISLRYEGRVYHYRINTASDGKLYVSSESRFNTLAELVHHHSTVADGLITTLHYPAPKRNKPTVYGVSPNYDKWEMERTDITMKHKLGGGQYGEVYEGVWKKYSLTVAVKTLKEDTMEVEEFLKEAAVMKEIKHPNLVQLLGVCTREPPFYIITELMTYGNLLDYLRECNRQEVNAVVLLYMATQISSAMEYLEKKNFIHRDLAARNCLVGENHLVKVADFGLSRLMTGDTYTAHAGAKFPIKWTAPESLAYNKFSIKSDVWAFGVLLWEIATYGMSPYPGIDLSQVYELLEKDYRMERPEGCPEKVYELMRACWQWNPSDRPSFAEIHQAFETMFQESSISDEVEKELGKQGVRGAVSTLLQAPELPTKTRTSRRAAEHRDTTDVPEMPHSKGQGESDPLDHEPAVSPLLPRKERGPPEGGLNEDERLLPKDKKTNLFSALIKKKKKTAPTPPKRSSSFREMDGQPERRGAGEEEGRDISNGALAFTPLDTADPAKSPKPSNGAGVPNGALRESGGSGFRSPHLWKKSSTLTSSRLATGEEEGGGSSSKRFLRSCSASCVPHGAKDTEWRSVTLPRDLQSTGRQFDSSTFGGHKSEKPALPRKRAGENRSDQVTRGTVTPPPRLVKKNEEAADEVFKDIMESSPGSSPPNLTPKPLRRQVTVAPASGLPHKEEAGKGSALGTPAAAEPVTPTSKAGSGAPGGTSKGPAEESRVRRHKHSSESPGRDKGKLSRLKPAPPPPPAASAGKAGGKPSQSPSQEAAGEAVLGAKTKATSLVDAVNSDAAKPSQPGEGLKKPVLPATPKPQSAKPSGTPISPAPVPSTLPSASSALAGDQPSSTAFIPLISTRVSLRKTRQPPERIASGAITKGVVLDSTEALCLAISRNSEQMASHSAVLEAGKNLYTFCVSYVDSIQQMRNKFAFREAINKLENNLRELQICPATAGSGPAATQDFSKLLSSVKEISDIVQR
In short: (§1)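 INX-315, single point 100 nmol/L, 1% DMSO; then 10-pt titration 1 µmol/L → 0.0495 nmol/L. Standard vendor conditions.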

ADRBK2 (GRK3) = molecular target: T2, ADRBK2 (GRK3) (Homo sapiens, UniProt P35626)
T2 construct: purchased Thermo Fisher Scientific SelectScreen (plus Nanosyn / Reaction Biology for CDK/cyclin lines)
In short: as §1

AMPK A1/B1/G1 = molecular target: T3, AMPK A1/B1/G1 (Homo sapiens, UniProt Q13131)
T3 construct: purchased Thermo Fisher Scientific SelectScreen (plus Nanosyn / Reaction Biology for CDK/cyclin lines)
In short: as §1

BRAF V599E = molecular target: T4, BRAF V599E (Homo sapiens, UniProt P15056, V600E)
T4 construct: purchased Thermo Fisher Scientific SelectScreen (plus Nanosyn / Reaction Biology for CDK/cyclin lines)
T4 sequence (P15056 whole entry V600E): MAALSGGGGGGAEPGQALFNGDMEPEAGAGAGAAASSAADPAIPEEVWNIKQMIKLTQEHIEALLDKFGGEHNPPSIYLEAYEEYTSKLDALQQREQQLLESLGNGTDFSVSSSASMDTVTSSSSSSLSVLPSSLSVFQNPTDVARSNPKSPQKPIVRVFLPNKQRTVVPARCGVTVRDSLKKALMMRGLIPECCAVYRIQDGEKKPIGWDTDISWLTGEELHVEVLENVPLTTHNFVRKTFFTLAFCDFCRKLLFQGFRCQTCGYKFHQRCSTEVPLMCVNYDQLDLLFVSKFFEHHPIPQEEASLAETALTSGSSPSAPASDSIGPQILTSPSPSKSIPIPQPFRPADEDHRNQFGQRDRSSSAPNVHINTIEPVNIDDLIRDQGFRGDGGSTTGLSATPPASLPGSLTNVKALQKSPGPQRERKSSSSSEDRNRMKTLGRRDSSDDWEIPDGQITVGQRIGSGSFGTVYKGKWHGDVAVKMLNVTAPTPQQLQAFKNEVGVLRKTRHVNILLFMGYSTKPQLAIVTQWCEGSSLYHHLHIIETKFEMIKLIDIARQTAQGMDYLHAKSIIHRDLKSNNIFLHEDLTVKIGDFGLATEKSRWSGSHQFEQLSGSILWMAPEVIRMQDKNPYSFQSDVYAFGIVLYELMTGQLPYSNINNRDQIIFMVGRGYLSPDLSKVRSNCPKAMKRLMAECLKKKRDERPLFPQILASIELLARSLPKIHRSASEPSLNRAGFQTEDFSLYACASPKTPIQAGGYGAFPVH
In short: as §1

CAMK1G (CAMKI gamma) = molecular target: T5, CAMK1G (CAMKI gamma) (Homo sapiens, UniProt Q96NX5)
T5 construct: purchased Thermo Fisher Scientific SelectScreen (plus Nanosyn / Reaction Biology for CDK/cyclin lines)
T5 sequence (Q96NX5 whole entry): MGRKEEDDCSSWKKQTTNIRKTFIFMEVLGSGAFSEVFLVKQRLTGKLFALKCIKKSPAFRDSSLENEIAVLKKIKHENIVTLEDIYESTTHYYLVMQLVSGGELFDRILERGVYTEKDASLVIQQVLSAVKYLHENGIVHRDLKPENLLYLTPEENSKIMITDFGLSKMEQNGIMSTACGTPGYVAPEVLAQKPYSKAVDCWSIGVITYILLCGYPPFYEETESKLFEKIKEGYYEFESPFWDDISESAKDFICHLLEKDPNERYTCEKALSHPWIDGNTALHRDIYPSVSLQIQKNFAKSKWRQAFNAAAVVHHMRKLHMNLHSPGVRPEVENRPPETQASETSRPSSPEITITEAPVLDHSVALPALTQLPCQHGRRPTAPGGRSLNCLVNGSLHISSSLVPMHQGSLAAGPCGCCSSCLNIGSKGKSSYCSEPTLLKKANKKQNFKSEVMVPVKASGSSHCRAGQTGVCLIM
In short: as §1

CAMK2D (CaMKII delta) = molecular target: T6, CAMK2D (CaMKII delta) (Homo sapiens, UniProt Q13557)
T6 construct: purchased Thermo Fisher Scientific SelectScreen (plus Nanosyn / Reaction Biology for CDK/cyclin lines)
In short: as §1

CDC42 BPA (MRCKA) = molecular target: T7, CDC42 BPA (MRCKA) (Homo sapiens, UniProt Q5VT25)
T7 construct: purchased Thermo Fisher Scientific SelectScreen (plus Nanosyn / Reaction Biology for CDK/cyclin lines)
In short: as §1

CDC42 BPG (MRCKG) = molecular target: T8, CDC42 BPG (MRCKG) (Homo sapiens, UniProt Q6DT37)
T8 construct: purchased Thermo Fisher Scientific SelectScreen (plus Nanosyn / Reaction Biology for CDK/cyclin lines)
T8 sequence (Q6DT37 whole entry): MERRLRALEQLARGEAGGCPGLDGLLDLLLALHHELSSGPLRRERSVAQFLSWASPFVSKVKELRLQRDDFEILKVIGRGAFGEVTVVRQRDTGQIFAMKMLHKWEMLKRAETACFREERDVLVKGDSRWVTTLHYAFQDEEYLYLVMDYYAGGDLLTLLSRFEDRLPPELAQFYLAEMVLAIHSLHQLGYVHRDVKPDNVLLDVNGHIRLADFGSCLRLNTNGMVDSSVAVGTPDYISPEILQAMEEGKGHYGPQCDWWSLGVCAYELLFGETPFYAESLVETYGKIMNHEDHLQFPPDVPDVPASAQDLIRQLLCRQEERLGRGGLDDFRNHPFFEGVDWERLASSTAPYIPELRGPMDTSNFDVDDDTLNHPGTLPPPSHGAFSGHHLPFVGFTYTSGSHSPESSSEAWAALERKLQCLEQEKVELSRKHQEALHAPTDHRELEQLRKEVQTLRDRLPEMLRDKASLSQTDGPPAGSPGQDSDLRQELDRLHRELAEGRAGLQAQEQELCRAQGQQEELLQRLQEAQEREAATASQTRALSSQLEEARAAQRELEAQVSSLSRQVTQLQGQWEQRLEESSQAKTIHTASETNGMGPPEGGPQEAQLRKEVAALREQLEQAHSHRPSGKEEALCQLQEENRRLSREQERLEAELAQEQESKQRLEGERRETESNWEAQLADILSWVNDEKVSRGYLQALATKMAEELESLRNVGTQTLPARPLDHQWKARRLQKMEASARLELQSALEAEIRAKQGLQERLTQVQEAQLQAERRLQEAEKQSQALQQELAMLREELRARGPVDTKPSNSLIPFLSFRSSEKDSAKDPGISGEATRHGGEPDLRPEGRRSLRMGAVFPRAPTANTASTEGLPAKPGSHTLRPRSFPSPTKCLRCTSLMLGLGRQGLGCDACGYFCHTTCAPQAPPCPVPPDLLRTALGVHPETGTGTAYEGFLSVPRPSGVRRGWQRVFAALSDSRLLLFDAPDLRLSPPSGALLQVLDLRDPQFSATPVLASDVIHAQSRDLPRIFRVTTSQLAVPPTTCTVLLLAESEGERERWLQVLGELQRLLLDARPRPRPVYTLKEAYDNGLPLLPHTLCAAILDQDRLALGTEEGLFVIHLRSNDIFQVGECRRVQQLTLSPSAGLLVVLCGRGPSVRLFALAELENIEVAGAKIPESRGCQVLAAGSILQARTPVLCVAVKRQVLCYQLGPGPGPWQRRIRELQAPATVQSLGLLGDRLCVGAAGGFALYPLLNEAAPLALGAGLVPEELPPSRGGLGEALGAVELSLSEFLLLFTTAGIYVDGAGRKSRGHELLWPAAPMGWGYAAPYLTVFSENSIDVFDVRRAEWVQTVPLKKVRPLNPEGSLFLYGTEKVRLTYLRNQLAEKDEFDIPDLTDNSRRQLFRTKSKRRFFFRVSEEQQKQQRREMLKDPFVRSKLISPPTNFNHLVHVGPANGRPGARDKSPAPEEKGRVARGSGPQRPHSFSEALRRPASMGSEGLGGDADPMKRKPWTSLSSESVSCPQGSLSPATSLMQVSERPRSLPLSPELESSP
In short: as §1

CDK2/cyclin A = molecular target: T9, CDK2/cyclin A (Homo sapiens, UniProt P24941)
T9 construct: purchased Thermo Fisher Scientific SelectScreen (plus Nanosyn / Reaction Biology for CDK/cyclin lines)
In short: as §1

CHEK2 (CHK2) = molecular target: T10, CHEK2 (CHK2) (Homo sapiens, UniProt O96017)
T10 construct: purchased Thermo Fisher Scientific SelectScreen (plus Nanosyn / Reaction Biology for CDK/cyclin lines)
In short: as §1

CSF1R (FMS) = molecular target: T11, CSF1R (FMS) (Homo sapiens, UniProt P07333)
T11 construct: purchased Thermo Fisher Scientific SelectScreen (plus Nanosyn / Reaction Biology for CDK/cyclin lines)
In short: as §1

CSNK1G1 (CK1 gamma 1) = molecular target: T12, CSNK1G1 (CK1 gamma 1) (Homo sapiens, UniProt Q9HCP0)
T12 construct: purchased Thermo Fisher Scientific SelectScreen (plus Nanosyn / Reaction Biology for CDK/cyclin lines)
In short: as §1

DCAMKL2 (DCK2) = molecular target: T13, DCAMKL2 (DCK2) (Homo sapiens, UniProt Q8N568)
T13 construct: purchased Thermo Fisher Scientific SelectScreen (plus Nanosyn / Reaction Biology for CDK/cyclin lines)
In short: as §1

DNA-PK = molecular target: T14, DNA-PK (Homo sapiens, UniProt P78527)
T14 construct: purchased Thermo Fisher Scientific SelectScreen (plus Nanosyn / Reaction Biology for CDK/cyclin lines)
In short: as §1

DYRK3 = molecular target: T15, DYRK3 (Homo sapiens, UniProt O43781)
T15 construct: purchased Thermo Fisher Scientific SelectScreen (plus Nanosyn / Reaction Biology for CDK/cyclin lines)
In short: as §1

EGFR (ErbB1) T790M L858R = molecular target: T16, EGFR (ErbB1) T790M L858R (Homo sapiens, UniProt P00533, L858R/T790M)
T16 construct: purchased Thermo Fisher Scientific SelectScreen (plus Nanosyn / Reaction Biology for CDK/cyclin lines)
In short: as §1

FER = molecular target: T17, FER (Homo sapiens, UniProt P16591)
T17 construct: purchased Thermo Fisher Scientific SelectScreen (plus Nanosyn / Reaction Biology for CDK/cyclin lines)
In short: as §1

FLT3 = molecular target: T18, FLT3 (Homo sapiens, UniProt P36888)
T18 construct: purchased Thermo Fisher Scientific SelectScreen (plus Nanosyn / Reaction Biology for CDK/cyclin lines)
In short: as §1

FLT3 D835Y = molecular target: T19, FLT3 D835Y (Homo sapiens, UniProt P36888, D835Y)
T19 construct: purchased Thermo Fisher Scientific SelectScreen (plus Nanosyn / Reaction Biology for CDK/cyclin lines)
In short: as §1

HIPK2 = molecular target: T20, HIPK2 (Homo sapiens, UniProt Q9H2X6)
T20 construct: purchased Thermo Fisher Scientific SelectScreen (plus Nanosyn / Reaction Biology for CDK/cyclin lines)
In short: as §1

KDR (VEGFR2) = molecular target: T21, KDR (VEGFR2) (Homo sapiens, UniProt P35968)
T21 construct: purchased Thermo Fisher Scientific SelectScreen (plus Nanosyn / Reaction Biology for CDK/cyclin lines)
In short: as §1

MAPK1 (ERK2) = molecular target: T22, MAPK1 (ERK2) (Homo sapiens, UniProt P28482)
T22 construct: purchased Thermo Fisher Scientific SelectScreen (plus Nanosyn / Reaction Biology for CDK/cyclin lines)
In short: as §1

MAPK14 (p38 alpha) = molecular target: T23, MAPK14 (p38 alpha) (Homo sapiens, UniProt Q16539)
T23 construct: purchased Thermo Fisher Scientific SelectScreen (plus Nanosyn / Reaction Biology for CDK/cyclin lines)
T23 sequence (Q16539 whole entry): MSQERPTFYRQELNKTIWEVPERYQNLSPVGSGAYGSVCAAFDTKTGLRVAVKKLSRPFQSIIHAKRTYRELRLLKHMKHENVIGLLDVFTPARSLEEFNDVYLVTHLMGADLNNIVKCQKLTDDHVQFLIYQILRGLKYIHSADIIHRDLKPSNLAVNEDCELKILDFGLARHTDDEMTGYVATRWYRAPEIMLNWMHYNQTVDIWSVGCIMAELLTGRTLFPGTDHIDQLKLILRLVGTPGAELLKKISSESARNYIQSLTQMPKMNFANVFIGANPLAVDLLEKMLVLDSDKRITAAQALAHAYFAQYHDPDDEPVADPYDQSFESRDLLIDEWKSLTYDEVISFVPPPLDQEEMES
In short: as §1

MAPK7 (ERK5) = molecular target: T24, MAPK7 (ERK5) (Homo sapiens, UniProt Q13164)
T24 construct: purchased Thermo Fisher Scientific SelectScreen (plus Nanosyn / Reaction Biology for CDK/cyclin lines)
T24 sequence (Q13164 whole entry): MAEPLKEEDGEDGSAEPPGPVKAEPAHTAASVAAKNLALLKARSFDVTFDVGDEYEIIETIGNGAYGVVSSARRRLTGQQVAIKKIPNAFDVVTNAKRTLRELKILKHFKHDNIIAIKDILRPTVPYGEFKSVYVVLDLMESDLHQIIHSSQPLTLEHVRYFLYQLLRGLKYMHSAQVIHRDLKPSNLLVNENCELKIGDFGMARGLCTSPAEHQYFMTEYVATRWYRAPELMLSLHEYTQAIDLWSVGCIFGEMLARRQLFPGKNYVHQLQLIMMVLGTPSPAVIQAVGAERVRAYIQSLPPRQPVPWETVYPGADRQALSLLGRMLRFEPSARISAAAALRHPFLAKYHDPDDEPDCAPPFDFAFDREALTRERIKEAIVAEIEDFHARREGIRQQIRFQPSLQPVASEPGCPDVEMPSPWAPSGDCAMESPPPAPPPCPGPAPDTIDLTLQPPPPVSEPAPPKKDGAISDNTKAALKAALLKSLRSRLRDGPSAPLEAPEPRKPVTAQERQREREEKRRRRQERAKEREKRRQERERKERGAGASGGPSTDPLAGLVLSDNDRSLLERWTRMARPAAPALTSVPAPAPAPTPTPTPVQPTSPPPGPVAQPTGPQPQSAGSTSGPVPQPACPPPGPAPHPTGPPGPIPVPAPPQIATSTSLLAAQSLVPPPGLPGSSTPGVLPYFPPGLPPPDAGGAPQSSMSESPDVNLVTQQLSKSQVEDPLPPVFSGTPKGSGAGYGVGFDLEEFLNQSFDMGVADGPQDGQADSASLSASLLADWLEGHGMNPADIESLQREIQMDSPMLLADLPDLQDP
In short: as §1

MAPKAPK2 = molecular target: T25, MAPKAPK2 (Homo sapiens, UniProt P49137)
T25 construct: purchased Thermo Fisher Scientific SelectScreen (plus Nanosyn / Reaction Biology for CDK/cyclin lines)
In short: as §1

MAPKAPK5 (PRAK) = molecular target: T26, MAPKAPK5 (PRAK) (Homo sapiens, UniProt Q8IW41)
T26 construct: purchased Thermo Fisher Scientific SelectScreen (plus Nanosyn / Reaction Biology for CDK/cyclin lines)
In short: as §1

MARK1 (MARK) = molecular target: T27, MARK1 (MARK) (Homo sapiens, UniProt Q9P0L2)
T27 construct: purchased Thermo Fisher Scientific SelectScreen (plus Nanosyn / Reaction Biology for CDK/cyclin lines)
In short: as §1

PAK3 = molecular target: T28, PAK3 (Homo sapiens, UniProt O75914)
T28 construct: purchased Thermo Fisher Scientific SelectScreen (plus Nanosyn / Reaction Biology for CDK/cyclin lines)
In short: as §1

PDGFRA (PDGFR alpha) = molecular target: T29, PDGFRA (PDGFR alpha) (Homo sapiens, UniProt P16234)
T29 construct: purchased Thermo Fisher Scientific SelectScreen (plus Nanosyn / Reaction Biology for CDK/cyclin lines)
In short: as §1

PDGFRA V561D = molecular target: T30, PDGFRA V561D (Homo sapiens, UniProt P16234, V561D)
T30 construct: purchased Thermo Fisher Scientific SelectScreen (plus Nanosyn / Reaction Biology for CDK/cyclin lines)
In short: as §1

PRKCH (PKC eta) = molecular target: T31, PRKCH (PKC eta) (Homo sapiens, UniProt P24723)
T31 construct: purchased Thermo Fisher Scientific SelectScreen (plus Nanosyn / Reaction Biology for CDK/cyclin lines)
In short: as §1

PRKCI (PKC iota) = molecular target: T32, PRKCI (PKC iota) (Homo sapiens, UniProt P41743)
T32 construct: purchased Thermo Fisher Scientific SelectScreen (plus Nanosyn / Reaction Biology for CDK/cyclin lines)
In short: as §1

PTK2 (FAK) = molecular target: T33, PTK2 (FAK) (Homo sapiens, UniProt Q05397)
T33 construct: purchased Thermo Fisher Scientific SelectScreen (plus Nanosyn / Reaction Biology for CDK/cyclin lines)
In short: as §1

ROCK2 = molecular target: T34, ROCK2 (Homo sapiens, UniProt O75116)
T34 construct: purchased Thermo Fisher Scientific SelectScreen (plus Nanosyn / Reaction Biology for CDK/cyclin lines)
In short: as §1

SRC = molecular target: T35, SRC (Homo sapiens, UniProt P12931)
T35 construct: purchased Thermo Fisher Scientific SelectScreen (plus Nanosyn / Reaction Biology for CDK/cyclin lines)
In short: as §1

SRC N1 = molecular target: T36, SRC N1 (Homo sapiens, UniProt P12931)
T36 construct: purchased Thermo Fisher Scientific SelectScreen (plus Nanosyn / Reaction Biology for CDK/cyclin lines)
In short: as §1

SYK = molecular target: T37, SYK (Homo sapiens, UniProt P43405)
T37 construct: purchased Thermo Fisher Scientific SelectScreen (plus Nanosyn / Reaction Biology for CDK/cyclin lines)
In short: as §1

## NS(=O)(=O)c1ccc(Nc2ncc3cc4n(c3n2)C2(CCCCC2)C(=O)NN4)cc1 [INX-315]
ABL1 F317L
  inhibition at 0.1 µM: 3%
ADRBK2 (GRK3)
  inhibition at 0.1 µM: 1%
AMPK A1/B1/G1
  inhibition at 0.1 µM: 32%
BRAF V599E
  inhibition at 0.1 µM: 7%
CAMK1G (CAMKI gamma)
  inhibition at 0.1 µM: 0%
CAMK2D (CaMKII delta)
  inhibition at 0.1 µM: 1%
CDC42 BPA (MRCKA)
  inhibition at 0.1 µM: -3%
CDC42 BPG (MRCKG)
  inhibition at 0.1 µM: 4%
CDK2/cyclin A
  inhibition at 0.1 µM: 100%
CHEK2 (CHK2)
  inhibition at 0.1 µM: 7%
CSF1R (FMS)
  inhibition at 0.1 µM: 95%
CSNK1G1 (CK1 gamma 1)
  inhibition at 0.1 µM: 1%
DCAMKL2 (DCK2)
  inhibition at 0.1 µM: -1%
DNA-PK
  inhibition at 0.1 µM: 6%
DYRK3
  inhibition at 0.1 µM: 8%
EGFR (ErbB1) T790M L858R
  inhibition at 0.1 µM: 0%
FER
  inhibition at 0.1 µM: 13%
FLT3
  inhibition at 0.1 µM: 40%
FLT3 D835Y
  inhibition at 0.1 µM: 31%
HIPK2
  inhibition at 0.1 µM: 5%
KDR (VEGFR2)
  inhibition at 0.1 µM: 42%
MAPK1 (ERK2)
  inhibition at 0.1 µM: 4%
MAPK14 (p38 alpha)
  inhibition at 0.1 µM: 1%
MAPK7 (ERK5)
  inhibition at 0.1 µM: 5%
MAPKAPK2
  inhibition at 0.1 µM: 3%
MAPKAPK5 (PRAK)
  inhibition at 0.1 µM: 2%
MARK1 (MARK)
  inhibition at 0.1 µM: 9%
PAK3
  inhibition at 0.1 µM: 4%
PDGFRA (PDGFR alpha)
  inhibition at 0.1 µM: 21%
PDGFRA V561D
  inhibition at 0.1 µM: 53%
PRKCH (PKC eta)
  inhibition at 0.1 µM: 11%
PRKCI (PKC iota)
  inhibition at 0.1 µM: -5%
PTK2 (FAK)
  inhibition at 0.1 µM: 8%
ROCK2
  inhibition at 0.1 µM: 6%
SRC
  inhibition at 0.1 µM: 8%
SRC N1
  inhibition at 0.1 µM: 9%
SYK
  inhibition at 0.1 µM: 8%
